Data set [1] is described as follows: Mouse acute toxicity LD50 (i.v.), Probit method. The settings on record: calculated by Probit method; for LD50: in vivo, iv. Format: in vivo. The source says:
The results seen in Table 4 clearly indicate that the compound of the invention is effective in relieving urinating contraction. Further, the toxicity of the compound is set forth in Table 4 in terms of LD50 (mg/kg) calculated by Probit method.

In data set [2] the test system is bladder (urinating contraction). Put plainly: Period of inhibition of rhythmic bladder contraction (urinating contraction) in urethane-anesthetized rats. Format: in vivo, rat (Wistar strain, male). As to conditions: rat, saline control 1.6 min.
Experimental: The compound of the invention was evaluated in urinating contraction of bladder by the following test method.
A male rat (Wistar strain) was fixed on his back under urethane anesthesia (1.5 g/kg, S.C.). A tracheal cannula was inserted into the rat to respire easily, and its hypogastrium was subjected to median dissection for exposing its bladder. A small opening was made on the top of the bladder to remove urine. To the bladder was inserted a polyethylene cannula. The bladder system was made to closed system by ligating urethra and ureter.
A physiological saline was injected into the bladder of rat at a rate of 0.05 mL/min. using a continuous injector so as to cause periodical urinating contraction. The intravesical pressure of the bladder was measured by means of a pressure transducer. The measured value was recorded on a pen-writing recorder. The compound to be tested was dissolved in a physiological saline and administered into the femoral vein using the polyethylene cannula.
The action for relieving urinating contraction was evaluated by measuring a period of time during which the rhythimic bladder contraction was inhibited (period of contraction inhibition).
The compounds tested were those obtained in the working examples.
The mark [3] stands for this setting: 6 mg/kg i.v., Hydrochloride, 6 mg/kg.
[4] abbreviates: 6 mg/kg i.v., Fumarate, 6 mg/kg.

In general, LD50 refers to the dose at which mortality reaches 50%.

Structures are written as SMILES. Where a name gives a salt, the structure may show the parent alone.

Regarding `O=C(O)/C=C/C(=O)O.O=C1c2ccccc2CS(=O)(=O)N1C(CCN1CCOCC1)c1ccccc1` (stereo not drawn) [Example 24[A], 3-(3-Morpholino-1-phenylpropyl)-1H-2,3-benzothiazin-4(3H)-one 2,2-Dioxide Fumarate], the LD50 in data set [1] is 62 mg/kg. The “Period of Contraction Inhibition” value in data set [2] (12 mg/kg i.v.) came to 5.6 min.

For `Cl.O=C1CN(C(CCN2CCOCC2)c2ccccc2)S(=O)(=O)c2ccccc21` (single isomer, unassigned; (-)) [Example 20[B]] [(-)-2-(3-Morpholino-1-phenylpropyl)-2H-1,2-benzothiazin-4(3H)-one 1,1-Dioxide Hydrochloride], the “Period of Contraction Inhibition” value in data set [2] (setting [3]) was determined as 0.4 min.

`Cl.O=C1CN(C(CCN2CCOCC2)c2ccccc2)S(=O)(=O)c2ccccc21` (stereo not drawn) [Example 20[A], 2-(3-Morpholino-1-phenylpropyl)-2H-1,2-benzothiazin-4(3H)-one 1,1-Dioxide Hydrochloride]: the LD50 in data set [1] is greater than 120 mg/kg. Moreover, the “Period of Contraction Inhibition” value in data set [2] (12 mg/kg i.v.) turned out to be 9.7 min.

For `Cl.O=C1CN(C(CCN2CCSCC2)c2ccccc2)S(=O)(=O)c2ccccc21` (stereo not drawn) [Example 21, 2-(1-Phenyl-3-thiomorpholinopropyl)-2H-1,2-benzothiazin-4(3H)-one 1,1-Dioxide Hydrochloride], the LD50 in data set [1] is greater than 100 mg/kg. The “Period of Contraction Inhibition” value in data set [2] (10 mg/kg i.v.) amounted to 7.0 min.

Take `O=C(O)/C=C/C(=O)O.O=C1c2ccccc2CS(=O)(=O)N1CCCN1CCC(Cc2ccccc2)CC1` [Example 3, 3-[3-(4-Benzylpiperidino)propyl]-1H-2,3-benzothiazin-4(3H)-one 2,2-Dioxide Fumarate]: in data set [2] (8 mg/kg i.v.), the “Period of Contraction Inhibition” value was 2 min.

In the case of `Cl.O=C1CN(CCCN2CCC(OCc3ccccc3)CC2)S(=O)(=O)c2ccccc21` [Example 2, 2-[3-(4-Benzyloxypiperidino)propyl]-2H-1,2-benzothiazin-4(3H)-one 1,1-Dioxide Hydrochloride], the “Period of Contraction Inhibition” value in data set [2] (8 mg/kg i.v.) was 16 min.

For the molecule `Cl.O=C1CN(C(CCN2CCOCC2)c2ccccc2)S(=O)(=O)c2ccccc21` (single isomer, unassigned; (-)) [Example 20[B], (-)-2-(3-Morpholino-1-phenylpropyl)-2H-1,2-benzothiazin-4(3H)-one 1,1-Dioxide Hydrochloride], the LD50 in data set [1] is 140 mg/kg.

Regarding `Cl.O=C1CN(CCCN2CCC(Cc3ccccc3)CC2)S(=O)(=O)c2ccccc21` [Example 10, 2-[3-(4-Benzylpiperidino)propyl)-2H-1,2-benzothiazin-4(3H)-one 1,1-Dioxide Hydrochloride], in data set [1], the LD50 is 3 mg/kg. Further, the “Period of Contraction Inhibition” value in data set [2] (8 mg/kg i.v.) was determined as 14.5 min.

Take `Cl.O=C1CN(CCCN2CCC(Oc3ccccc3)CC2)S(=O)(=O)c2ccccc21` [Example 1, 2-[3-(4-Phenoxypiperidino)propyl]-2H-1,2-benzothiazin-4(3H)-one 1,1-dioxide Hydrochloride]: in data set [2] (1 mg/kg i.v.), the “Period of Contraction Inhibition” value worked out at 2.8 min.

For `CCCCN(CCCN1CC(=O)c2ccccc2S1(=O)=O)Cc1ccccc1.Cl` [Example 11, 2-[3-(N-Benzyl-N-butylamino)propyl]-2H-1,2-benzothiazin-4(3H)-one 1,1-Dioxide Hydrochloride], the LD50 in data set [1] was 37 mg/kg. The “Period of Contraction Inhibition” value in data set [2] (8 mg/kg i.v.) was found to be 3.9 min.

`Cl.O=C1CN(CCN2CCC(Cc3ccccc3)CC2)S(=O)(=O)c2ccccc21` [Example 13, 2-[2-(4-Benzylpiperidino)ethyl]-2H-1,2-benzothiazin-4(3H)-one 1,1-Dioxide Hydrochloride]: the “Period of Contraction Inhibition” value in data set [2] (8 mg/kg i.v.) is 18 min.

With `CC(=O)N1CCN(CCC(c2ccccc2)N2C(=O)c3ccccc3S2(=O)=O)CC1` (stereo not drawn) [Example XI, 2-[3-(4-Acetyl-1-piperazinyl)-1-pheny]propyl-1,2-benzisothiazol-3(2H)-one 1,1-Dioxide Fumarate], in data set [1], the LD50 was 170 mg/kg. Also, the “Period of Contraction Inhibition” value in data set [2] (17 mg/kg i.v.) came out at 6.0 min.

In the case of `O=C1c2ccccc2S(=O)(=O)N1C(CCN1CCOCC1)c1ccccc1` (stereo not drawn) [Example IX, 2-(3-Morpholino-1-pheny)propyl-1,2-benzisothiazol-3(2H)-one 1,1-Dioxide Fumarate], the LD50 in data set [1] was 48 mg/kg. Also, the “Period of Contraction Inhibition” value in data set [2] (5 mg/kg i.v.) is 10.7 min.

Turning to `N#CC1(c2ccccc2)CCN(CCC(c2ccccc2)N2CC(=O)c3ccccc3S2(=O)=O)CC1.O=C(O)/C=C/C(=O)O` (stereo not drawn) [Example 34, 2-[3-(4-Cyano-4-phenylpiperidino)-1-phenylpropyl]-2H-1,2-benzothiazin-4(3H)-one 1,1-Dioxide Fumarate], in data set [2] (8 mg/kg i.v.), the “Period of Contraction Inhibition” value was 3 min.

As for `O=C(O)/C=C/C(=O)O.O=C1c2ccccc2CS(=O)(=O)N1C(CCN1CCOCC1)c1ccccc1` (single isomer, unassigned; (+)) [Example 24[C]] [(+)-3-(3-Morpholino-1-phenylpropyl)-1H-2,3-benzothiazin-4(3H)-one 2,2-Dioxide Fumarate], in data set [1] (Fumarate), the “Mouse LD50” value is given as 167 mg/kg. For the same molecule, the “Period of Contraction Inhibition” value in data set [2] (setting [4]) was found to be 0.7 min.

For the molecule `O=C1CN(CCCN2CCc3ccccc3C2)S(=O)(=O)c2ccccc21` [Example 15, 2-[3-[2-(1,2,3,4-Tetrahydroisoquinolyl)]propyl]-2H-1,2-benzothiazin-4(3H)-one 1,1-Dioxide Hydrochloride], in data set [1], the LD50 was 23 mg/kg. Moreover, the “Period of Contraction Inhibition” value in data set [2] (8 mg/kg i.v.) stood at 4.7 min.

In the case of `N#CC1(c2ccccc2)CCN(CCCN2CC(=O)c3ccccc3S2(=O)=O)CC1.O=C(O)/C=C/C(=O)O` [Example 32, 2-[3-(4-Cyano-4-phenylpiperidino)propyl]-2H-1,2-benzothiazin-4(3H)-one 1,1-Dioxide Fumarate], the “Period of Contraction Inhibition” value in data set [2] (8 mg/kg i.v.) stood at 6 min.

`Cl.O=C1CN(C(CCN2CCOCC2)c2ccccc2)S(=O)(=O)c2ccccc21` (single isomer, unassigned; (+)) [Example 20[C]] [(+)-2-(3-Morpholino-1-phenylpropyl)-2H-1,2-benzothiazin-4(3H)-one 1,1-Dioxide Hydrochloride]: in data set [1] (Hydrochloride), the “Mouse LD50” value is recorded as 180 mg/kg. Besides, the “Period of Contraction Inhibition” value in data set [2] (setting [3]) amounted to 6.0 min.

On to `CS(=O)(=O)O.O=C1c2ccccc2CS(=O)(=O)N1C(CCN1CCSCC1)c1ccccc1` (stereo not drawn) [Example 26, 3-(1-Phenyl-3-thiomorpholinopropyl)-1H-2,3-benzothiazin-4(3H)-one 2,2-Dioxide Mesylate], for which the LD50 in data set [1] was 37 mg/kg. Also, the “Period of Contraction Inhibition” value in data set [2] (4 mg/kg i.v.) was determined as 7.3 min.

Turning to `Cl.O=C1CN(CCCN2CCN(Cc3ccccc3)CC2)S(=O)(=O)c2ccccc21` [Example 14, 2-[3-(4-Benzyl-1-piperazinyl)propyl]-2H-1,2-benzothiazin-4(3H)-one 1,1-Dioxide Hydrochloride], in data set [1], the LD50 was 17 mg/kg. The “Period of Contraction Inhibition” value in data set [2] (8 mg/kg i.v.) came out at 12.7 min.

In the case of `Cl.O=C1CN(CCCN2CCN(C(c3ccccc3)c3ccccc3)CC2)S(=O)(=O)c2ccccc21` [Example 12, 2-[3-(4-Diphenylmethyl-1-piperazinyl)propyl]-2H-1,2-benzothiazin-4(3H)-one 1,1-Dioxide Hydrochloride], the “Period of Contraction Inhibition” value in data set [2] (8 mg/kg i.v.) was 2.5 min.

With `O=C1c2ccccc2S(=O)(=O)N1C(CCN1CCSCC1)c1ccccc1` (stereo not drawn) [Example II, 2-(1-Phenyl-3-thiomorpholino)propyl-1,2-benzisothiazol-3(2H)-one 1,1-Dioxide Fumarate], the LD50 in data set [1] was 47 mg/kg. Further, the “Period of Contraction Inhibition” value in data set [2] (5 mg/kg i.v.) was 3.8 min.

For `O=C1c2ccccc2S(=O)(=O)N1C(CCN1CCN(c2ncccn2)CC1)c1ccccc1` (stereo not drawn) [Example XII, 2-[1-Phenyl-3-[4-(2-pyrimidinyl)-1-piperazinyl]propyl-1,2-benzisothiazol-3(2H)-one 1,1-Dioxide Hydrochloride], the 50% lethal dose (LD50) in data set [1] was greater than 200 mg/kg. The “Period of Contraction Inhibition” value in data set [2] (20 mg/kg i.v.) amounted to 3.5 min.

For the molecule `O=C(O)/C=C/C(=O)O.O=C1c2ccccc2CS(=O)(=O)N1C(CCN1CCOCC1)c1ccccc1` (single isomer, unassigned; (-)) [Example 24[B]] [(-)-3-(3-Morpholino-1-phenylpropyl)-1H-2,3-benzothiazin-4(3H)-one 2,2-Dioxide Fumarate], the “Mouse LD50” value in data set [1] (Fumarate) is recorded as 32 mg/kg. In addition, the “Period of Contraction Inhibition” value in data set [2] (setting [4]) amounted to 8.5 min.

(Values after US5773437A, “Alkylenediamine derivatives” (Nippon Chemiphar Co., Ltd., priority 1994, dated 1998).)
